Test: Stability of tris(pentafluorophenyl)borane hydrates
Assay type: physicochemical
Conditions: in solution or in the solid state
Excerpt: Of the class of compounds of the type (C6F5)3B-(YXH)q, when Y is hydrogen, X is oxygen, and q is 1 or 3, the complex with water is a special case. Exposure of anhydrous (C6F5)3B to water vapor, produces (C6F5)3B·3H2O, a white, stable solid. No intermediate hydrate was detected by infrared spectroscopic analysis. […] Formation of a trihydrate was unexpected because all other previously known (C6F5)3B complexes with Lewis bases have a 1:1 stoichiometry. Vacuum sublimation of the trihydrate produced a mixture of the monohydrate and (C6F5)3B. The pure monohydrate, (C6F5)3B·H2O, however may be obtained by combining in organic solvents, such as toluene or chloroform, one equivalent of (C6F5)3B·3H2O with two equivalents of (C6F5)3B followed by evaporation of the solvent. This conproportionation reaction is a convenient way of synthesizing the monohydrate as needed. […] The monohydrate may also be prepared by combining one mole each of water and (C6F5)3B.

- stability: unstable and slowly decomposes
Compound: Fc1c(F)c(F)c(B(c2c(F)c(F)c(F)c(F)c2F)c2c(F)c(F)c(F)c(F)c2F)c(F)c1F.O [Example 2]

— patent publication EP0891991A2, “Tris(pentafluorophenyl)borate complexes and catalysts derived therefrom” (MINNESOTA MINING AND MANUFACTURING COMPANY, priority 1995, dated 1996)
